Reference: PMC8286840, “Identifying SARS-CoV-2 antiviral compounds by screening for small molecule inhibitors of Nsp3 papain-like protease” (Biochemical Journal, 2021)
Structures can show the parent of a compound that is named as a salt. Where two headings read alike, the source gives them in different places.

How the values were obtained:
[1] = target: T1, SARS-CoV-2 PLpro (nsp3 1564–1878) (Severe acute respiratory syndrome coronavirus 2, UniProt P0DTD1); assay: biochemical; set-up: FRET-quenched peptide (Pro3) cleavage by PLpro, 10 min pre-incubation, slope over 20 min, normalised to no-compound control; conditions: low concentration screen, read-out: % of control remaining
[2] = target: T1, SARS-CoV-2 PLpro (nsp3 1564–1878); assay: biochemical; set-up: FRET-quenched peptide (Pro3) cleavage by PLpro, 10 min pre-incubation, slope over 20 min, normalised to no-compound control; conditions: high concentration screen, read-out: % of control remaining

With `O=C(NCCNCC(O)COc1ccc(O)cc1)N1CCOCC1` (stereo not drawn) [Xamoterol hemifumarate] the remaining activity at 1.25 µM ([1]; Well no.=1436) was 95.5%, the remaining activity at 1.25 µM ([1]; Well no.=1741) was 102% and the remaining activity at 3.75 µM ([2]; Well no.=1436) was 95.1%. For the same molecule, the remaining activity at 3.75 µM ([2]; Well no.=1741) was 103%.
`C=C1C[C@@]23CC[C@H]4[C@@](C)(CCC[C@@]4(C)C(=O)O[C@@H]4O[C@H](CO)[C@@H](O)[C@H](O)[C@H]4O)[C@@H]2CC[C@]1(O[C@@H]1O[C@H](C)[C@@H](O)[C@H](O)[C@@H]1O[C@@H]1O[C@H](CO)[C@@H](O)[C@H](O[C@@H]2O[C@H](CO)[C@@H](O)[C@H](O)[C@H]2O)[C@H]1O)C3` [Rebaudioside C] was tested, and the remaining activity at 1.25 µM ([1]; Well no.=8446) was 96% and the remaining activity at 3.75 µM ([2]; Well no.=8446) was 95.9%.
For `C[C@H](NC(=O)C(C)(C)Oc1ccc(C(F)(F)F)cn1)[C@@H](Cc1ccc(Cl)cc1)c1cccc(C#N)c1` [Taranabant], the remaining activity at 1.25 µM ([1]; Well no.=7147) was 103% and the remaining activity at 3.75 µM ([2]; Well no.=7147) was 87.5%.
Molecule `NC/C=C/C(=O)O` [(E)-4-amino-2-butenoic acid] has a remaining activity at 1.25 µM ([1]; Well no.=1283) of 103% and a remaining activity at 3.75 µM ([2]; Well no.=1283) of 101%.
Work on `CC(=O)c1c(C)c2cnc(Nc3ccc(N4CCNCC4)cn3)nc2n(C2CCCC2)c1=O` [Palbociclib (isethionate)] yielded a remaining activity at 1.25 µM ([1]; Well no.=7316) of 103% and a remaining activity at 3.75 µM ([2]; Well no.=7316) of 103%.
`CN1CCc2cc(O)c(O)cc2C(c2ccccc2)C1` (stereo not drawn) [SKF 75670 hydrobromide] gave a remaining activity at 1.25 µM ([1]; Well no.=1360) of 103% and a remaining activity at 3.75 µM ([2]; Well no.=1360) of 105%.
With `O=c1[nH]oc2c1CCNC2` [THIP hydrochloride] the remaining activity at 1.25 µM ([1]; Well no.=1328) was 96.3% and the remaining activity at 3.75 µM ([2]; Well no.=1328) was 97.2%.
`Nc1ccn([C@@H]2O[C@H](CO)[C@@H](O)C2(F)F)c(=O)n1` [Gemcitabine (hydrochloride)] gave a remaining activity at 1.25 µM ([1]; Well no.=8056) of 96.9% and a remaining activity at 3.75 µM ([2]; Well no.=8056) of 100%.
`NC(N)=NCC(=O)O` [2-Guanidinoacetic acid] showed a remaining activity at 1.25 µM ([1]; Well no.=6437) of 103% and a remaining activity at 3.75 µM ([2]; Well no.=6437) of 105%.
For `C#C[C@]1(OC(C)=O)CC[C@H]2[C@@H]3CCC4=C[C@@H](OC(C)=O)CC[C@@H]4[C@H]3CC[C@@]21C` [Ethynodiol diacetate], the remaining activity at 1.25 µM ([1]; Well no.=5373) was 92.3% and the remaining activity at 3.75 µM ([2]; Well no.=5373) was 92.2%.
`Cn1c(=O)[nH]c2ncn(C)c2c1=O` [1,7-Dimethylxanthine] showed a remaining activity at 1.25 µM ([1]; Well no.=691) of 98.6% and a remaining activity at 3.75 µM ([2]; Well no.=691) of 99.7%.
For `NCC(O)c1ccccc1` (stereo not drawn) [2-Amino-1-phenylethanol], the remaining activity at 1.25 µM ([1]; Well no.=7217) was 95.5% and the remaining activity at 3.75 µM ([2]; Well no.=7217) was 96.7%.
Molecule `Cn1cc(-c2ccncc2)c(-c2ccc(OCc3ccc4ccccc4n3)cc2)n1` [PF-2545920] has a remaining activity at 1.25 µM ([1]; Well no.=8150) of 101% and a remaining activity at 3.75 µM ([2]; Well no.=8150) of 95.7%.
`C[C@H]1[C@H](C)CC[C@]2(C(=O)O)CC[C@]3(C)C(=CC[C@@H]4[C@@]5(C)CC[C@H](O)C(C)(C)[C@@H]5CC[C@]43C)[C@H]12` [Ursolic acid] gave a remaining activity at 1.25 µM ([1]; Well no.=3585) of 107% and a remaining activity at 3.75 µM ([2]; Well no.=3585) of 113%.
`CCCCC[C@H](O)/C=C/[C@@H]1[C@@H](CC(=O)CCC(=O)O)[C@@H](O)C[C@@H]1O` [2,3-Dinor-6-keto-prostaglandin F1a] showed a remaining activity at 1.25 µM ([1]; Well no.=4527) of 93.5% and a remaining activity at 3.75 µM ([2]; Well no.=4527) of 97.9%.
Molecule `C[N+](C)(C)CCOC(N)=O` [Carbachol] has a remaining activity at 1.25 µM ([1]; Well no.=32) of 95.6% and a remaining activity at 3.75 µM ([2]; Well no.=32) of 99%.
Molecule `COc1ccc2c(c1)c(CC(=O)O)c(C)n2C(=O)c1ccccc1` [1-benzoyl-5-methoxy-2-methylindole-3-acetic acid] has a remaining activity at 1.25 µM ([1]; Well no.=118) of 102% and a remaining activity at 3.75 µM ([2]; Well no.=118) of 104%.
In the case of `CCCCCCCC/C=C\C/C=C\C/C=C\CCCC(=O)NCCO` [Mead ethanolamide], the remaining activity at 1.25 µM ([1]; Well no.=4324) is reported as 99.8% and the remaining activity at 3.75 µM ([2]; Well no.=4324) is reported as 95.4%.
For `CCC[C@H](N[C@@H](C)C(=O)N1[C@H](C(=O)O)C[C@@H]2CCCC[C@@H]21)C(=O)OCC` [Perindopril Erbumine], the remaining activity at 1.25 µM ([1]; Well no.=8778) was 89.7% and the remaining activity at 3.75 µM ([2]; Well no.=8778) was 84.8%.
In the case of `CNCCCC1c2ccccc2C=Cc2ccccc21` [Protriptyline hydrochloride], the remaining activity at 1.25 µM ([1]; Well no.=1209) is reported as 108% and the remaining activity at 3.75 µM ([2]; Well no.=1209) is reported as 104%.
With `N=C(N)c1ccc(N)cc1` [4-Aminobenzamidine dihydrochloride] the remaining activity at 1.25 µM ([1]; Well no.=309) was 91.8% and the remaining activity at 3.75 µM ([2]; Well no.=309) was 92.5%.
For `CC(C)C(C(=O)O)N1C(=O)/C(=C\c2ccc(Br)cc2)SC1=S` (stereo not drawn) [BH3I-1], the remaining activity at 1.25 µM ([1]; Well no.=6586) was 98.6% and the remaining activity at 3.75 µM ([2]; Well no.=6586) was 99.7%.
Work on `Cc1ccc(-c2nn(C(C)(C)CNC(=O)c3ccncc3)c3ncnc(N)c23)cc1` [WEHI-345] yielded a remaining activity at 1.25 µM ([1]; Well no.=6690) of 96.4% and a remaining activity at 3.75 µM ([2]; Well no.=6690) of 96.2%.
`O=C(Oc1cc(S(=O)(=O)c2ccccc2)ccc1[N+](=O)[O-])c1ccc(Cl)cc1` [BTB06584] was tested, and the remaining activity at 1.25 µM ([1]; Well no.=5965) was 102% and the remaining activity at 3.75 µM ([2]; Well no.=5965) was 102%.
Molecule `O=C1NCCN1CCN1CCC(c2cn(-c3ccc(F)cc3)c3ccc(Cl)cc23)CC1` [Sertindole] has a remaining activity at 1.25 µM ([1]; Well no.=5420) of 98.4%, a remaining activity at 1.25 µM ([1]; Well no.=6604) of 93.4% and a remaining activity at 3.75 µM ([2]; Well no.=5420) of 102%. It also gave a remaining activity at 3.75 µM ([2]; Well no.=6604) of 96.1%.
For `C[C@@H]1O[C@@H](O[C@H]2C(=O)c3c(O)cc(O)cc3O[C@@H]2c2ccc(O)c(O)c2)[C@H](O)[C@H](O)[C@H]1O` [Astilbin], the remaining activity at 1.25 µM ([1]; Well no.=6924) was 114% and the remaining activity at 3.75 µM ([2]; Well no.=6924) was 106%.
Work on `CCCCCN(C)CCC(O)(P(=O)(O)O)P(=O)(O)O` [Ibandronate sodium salt] yielded a remaining activity at 1.25 µM ([1]; Well no.=6031) of 96.1% and a remaining activity at 3.75 µM ([2]; Well no.=6031) of 91.1%.
For `CC1(C)CCC(NC(=O)[C@@H](N)CCC(=O)O)CC1` [CR 2249], the remaining activity at 1.25 µM ([1]; Well no.=901) was 108% and the remaining activity at 3.75 µM ([2]; Well no.=901) was 105%.
Molecule `CC(C)(Oc1ccc(C2CC2(Cl)Cl)cc1)C(=O)O` (stereo not drawn) [Ciprofibrate] has a remaining activity at 1.25 µM ([1]; Well no.=41) of 92.6% and a remaining activity at 3.75 µM ([2]; Well no.=41) of 93.5%.
`CC1(C)S[C@@H]2[C@H](NC(=O)C(C(=O)O)c3ccccc3)C(=O)N2[C@H]1C(=O)O` (stereo partly drawn) [Carbenicillin disodium] was tested, and the remaining activity at 1.25 µM ([1]; Well no.=5030) was 96.4% and the remaining activity at 3.75 µM ([2]; Well no.=5030) was 96.8%.
Molecule `N[C@@H](CS)C(=O)O` [L-Cysteine] has a remaining activity at 1.25 µM ([1]; Well no.=7783) of 107% and a remaining activity at 3.75 µM ([2]; Well no.=7783) of 109%.
`N#C/C(=C\c1ccc(O)c(O)c1)C(=O)NCCCc1ccccc1` [Tyrphostin AG 555] showed a remaining activity at 1.25 µM ([1]; Well no.=1337) of 101% and a remaining activity at 3.75 µM ([2]; Well no.=1337) of 98.7%.
`C[C@@]12CCc3occc3[C@H]1CC[C@]13CC(=O)[C@H](CC[C@H]12)C3` [16-Oxocafestol] was tested, and the remaining activity at 1.25 µM ([1]; Well no.=3669) was 92.6% and the remaining activity at 3.75 µM ([2]; Well no.=3669) was 91.5%.
Molecule `CCN(c1nc(N)c(C(=O)NC(=N)N)nc1Cl)C(C)C` [5-(N-Ethyl-N-isopropyl)amiloride] has a remaining activity at 1.25 µM ([1]; Well no.=203) of 99.7% and a remaining activity at 3.75 µM ([2]; Well no.=203) of 97.3%.
